According to paper PMC8212709 (Clinical and Translational Science, 2021):

Assay: Phase I SRD/MRD safety and tolerability
Assay type: in vivo, human (healthy subjects)
[1] = SRD single dose 17.5 mg (n = 6)

C=CC(=O)N1CC[C@H](Oc2nc(-c3n[nH]c(=O)[nH]3)cc3ccccc23)C1 [TAK‐020]
TEAEs (SRD single dose 0.1 mg (n = 6)): 0 n (%)
TEAEs Leading to DC (SRD single dose 0.1 mg (n = 6)): 0 n (%)
TEAEs, Mild (SRD single dose 0.1 mg (n = 6)): 0 n (%)
TEAEs, Moderate (SRD single dose 0.1 mg (n = 6)): 0 n (%)
TEAEs, Not related (SRD single dose 0.1 mg (n = 6)): 0 n (%)
TEAEs, Related (SRD single dose 0.1 mg (n = 6)): 0 n (%)
TEAEs, Severe (SRD single dose 0.1 mg (n = 6)): 0 n (%)
Deaths (SRD single dose 0.5 mg (n = 6)): 0 n (%)
Serious TEAEs (SRD single dose 0.5 mg (n = 6)): 0 n (%)
Serious TEAEs, Not related (SRD single dose 0.5 mg (n = 6)): 0 n (%)
Serious TEAEs, Related (SRD single dose 0.5 mg (n = 6)): 0 n (%)
TEAEs (SRD single dose 0.5 mg (n = 6)): 0 n (%)
TEAEs Leading to DC (SRD single dose 0.5 mg (n = 6)): 0 n (%)
TEAEs, Mild (SRD single dose 0.5 mg (n = 6)): 0 n (%)
TEAEs, Moderate (SRD single dose 0.5 mg (n = 6)): 0 n (%)
TEAEs, Not related (SRD single dose 0.5 mg (n = 6)): 0 n (%)
TEAEs, Related (SRD single dose 0.5 mg (n = 6)): 0 n (%)
TEAEs, Severe (SRD single dose 0.5 mg (n = 6)): 0 n (%)
Deaths (SRD single dose 2.5 mg (n = 6)): 0 n (%)
Serious TEAEs (SRD single dose 2.5 mg (n = 6)): 0 n (%)
Serious TEAEs, Not related (SRD single dose 2.5 mg (n = 6)): 0 n (%)
Serious TEAEs, Related (SRD single dose 2.5 mg (n = 6)): 0 n (%)
TEAEs (SRD single dose 2.5 mg (n = 6)): 1 (16.7) n (%)
TEAEs Leading to DC (SRD single dose 2.5 mg (n = 6)): 0 n (%)
TEAEs, Mild (SRD single dose 2.5 mg (n = 6)): 1 (16.7) n (%)
TEAEs, Moderate (SRD single dose 2.5 mg (n = 6)): 0 n (%)
TEAEs, Not related (SRD single dose 2.5 mg (n = 6)): 0 n (%)
TEAEs, Related (SRD single dose 2.5 mg (n = 6)): 1 (16.7) n (%)
TEAEs, Severe (SRD single dose 2.5 mg (n = 6)): 0 n (%)
Deaths (SRD single dose 4.4 mg (n = 6)): 0 n (%)
Serious TEAEs (SRD single dose 4.4 mg (n = 6)): 0 n (%)
Serious TEAEs, Not related (SRD single dose 4.4 mg (n = 6)): 0 n (%)
Serious TEAEs, Related (SRD single dose 4.4 mg (n = 6)): 0 n (%)
TEAEs (SRD single dose 4.4 mg (n = 6)): 0 n (%)
TEAEs Leading to DC (SRD single dose 4.4 mg (n = 6)): 0 n (%)
TEAEs, Mild (SRD single dose 4.4 mg (n = 6)): 0 n (%)
TEAEs, Moderate (SRD single dose 4.4 mg (n = 6)): 0 n (%)
TEAEs, Not related (SRD single dose 4.4 mg (n = 6)): 0 n (%)
TEAEs, Related (SRD single dose 4.4 mg (n = 6)): 0 n (%)
TEAEs, Severe (SRD single dose 4.4 mg (n = 6)): 0 n (%)
Deaths (SRD single dose 8.8 mg (n = 6)): 0 n (%)
Serious TEAEs (SRD single dose 8.8 mg (n = 6)): 0 n (%)
Serious TEAEs, Not related (SRD single dose 8.8 mg (n = 6)): 0 n (%)
Serious TEAEs, Related (SRD single dose 8.8 mg (n = 6)): 0 n (%)
TEAEs (SRD single dose 8.8 mg (n = 6)): 1 (16.7) n (%)
TEAEs Leading to DC (SRD single dose 8.8 mg (n = 6)): 0 n (%)
TEAEs, Mild (SRD single dose 8.8 mg (n = 6)): 1 (16.7) n (%)
TEAEs, Moderate (SRD single dose 8.8 mg (n = 6)): 0 n (%)
TEAEs, Not related (SRD single dose 8.8 mg (n = 6)): 0 n (%)
TEAEs, Related (SRD single dose 8.8 mg (n = 6)): 1 (16.7) n (%)
TEAEs, Severe (SRD single dose 8.8 mg (n = 6)): 0 n (%)
Deaths [1]: 0 n (%)
Serious TEAEs [1]: 0 n (%)
Serious TEAEs, Not related [1]: 0 n (%)
Serious TEAEs, Related [1]: 0 n (%)
TEAEs [1]: 0 n (%)
TEAEs Leading to DC [1]: 0 n (%)
TEAEs, Mild [1]: 0 n (%)
TEAEs, Moderate [1]: 0 n (%)
TEAEs, Not related [1]: 0 n (%)
TEAEs, Related [1]: 0 n (%)
TEAEs, Severe [1]: 0 n (%)
Deaths (SRD single dose 35 mg (n = 6)): 0 n (%)
Serious TEAEs (SRD single dose 35 mg (n = 6)): 0 n (%)
Serious TEAEs, Not related (SRD single dose 35 mg (n = 6)): 0 n (%)
Serious TEAEs, Related (SRD single dose 35 mg (n = 6)): 0 n (%)
TEAEs (SRD single dose 35 mg (n = 6)): 0 n (%)
TEAEs Leading to DC (SRD single dose 35 mg (n = 6)): 0 n (%)
TEAEs, Mild (SRD single dose 35 mg (n = 6)): 0 n (%)
TEAEs, Moderate (SRD single dose 35 mg (n = 6)): 0 n (%)
TEAEs, Not related (SRD single dose 35 mg (n = 6)): 0 n (%)
TEAEs, Related (SRD single dose 35 mg (n = 6)): 0 n (%)
TEAEs, Severe (SRD single dose 35 mg (n = 6)): 0 n (%)
Deaths (SRD single dose 70 mg (n = 6)): 0 n (%)
Serious TEAEs (SRD single dose 70 mg (n = 6)): 0 n (%)
Serious TEAEs, Not related (SRD single dose 70 mg (n = 6)): 0 n (%)
Serious TEAEs, Related (SRD single dose 70 mg (n = 6)): 0 n (%)
TEAEs (SRD single dose 70 mg (n = 6)): 3 (50.0) n (%)
TEAEs Leading to DC (SRD single dose 70 mg (n = 6)): 0 n (%)
TEAEs, Mild (SRD single dose 70 mg (n = 6)): 3 (50.0) n (%)
TEAEs, Moderate (SRD single dose 70 mg (n = 6)): 0 n (%)
TEAEs, Not related (SRD single dose 70 mg (n = 6)): 2 (33.3) n (%)
TEAEs, Related (SRD single dose 70 mg (n = 6)): 1 (16.7) n (%)
TEAEs, Severe (SRD single dose 70 mg (n = 6)): 0 n (%)
Deaths (SRD single dose 105 mg (n = 6)): 0 n (%)
Serious TEAEs (SRD single dose 105 mg (n = 6)): 0 n (%)
Serious TEAEs, Not related (SRD single dose 105 mg (n = 6)): 0 n (%)
Serious TEAEs, Related (SRD single dose 105 mg (n = 6)): 0 n (%)
TEAEs (SRD single dose 105 mg (n = 6)): 1 (16.7) n (%)
TEAEs Leading to DC (SRD single dose 105 mg (n = 6)): 0 n (%)
TEAEs, Mild (SRD single dose 105 mg (n = 6)): 1 (16.7) n (%)
TEAEs, Moderate (SRD single dose 105 mg (n = 6)): 0 n (%)
TEAEs, Not related (SRD single dose 105 mg (n = 6)): 1 (16.7) n (%)
TEAEs, Related (SRD single dose 105 mg (n = 6)): 0 n (%)
TEAEs, Severe (SRD single dose 105 mg (n = 6)): 0 n (%)
percentage of subjects who experienced TEAEs (SRD, overall TAK‐020 group): 11.1%
